#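 The compound was tested at five concentrations on cells cultured in 96-well plates, with a 48-hour exposure period. GI50 = concentration required for 50% inhibition of growth. TGI: concentration producing complete growth inhibition.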
# Experiments:
# Assay in all cases: DTP human tumour cell line panel, 48 h
# [1] = tested on: A549 NSCLC
# [2] = tested on: ACHN renal
# [3] = tested on: CCRF-CEM leukemia
# [4] = tested on: DLD-1 colon
# [5] = tested on: EKVX NSCLC
# [6] = tested on: HCC-2998 colon
# [7] = tested on: HCT-116 colon
# [8] = tested on: HCT-15 colon
# [9] = tested on: HL-60(TB) leukemia
# [10] = tested on: HOP-18 NSCLC
# [11] = tested on: HOP-62 NSCLC
# [12] = tested on: HOP-92 NSCLC
# [13] = tested on: HT29 colon
# [14] = tested on: IGROV1 ovarian
# [15] = tested on: K-562 leukemia
# [16] = tested on: KM12 colon
# [17] = tested on: KM20L2 colon
# [18] = tested on: LOX IMVI melanoma
# [19] = tested on: LXFL 529 NSCLC
# [20] = tested on: M14 melanoma
# [21] = tested on: M19-MEL melanoma
# [22] = tested on: MALME-3M melanoma
# [23] = tested on: MOLT-4 leukemia
# [24] = tested on: NCI-H460 lung
# [25] = tested on: NCI-H522 lung
# [26] = tested on: OVCAR-3 ovarian
# [27] = tested on: OVCAR-4 ovarian
# [28] = tested on: OVCAR-5 ovarian
# [29] = tested on: OVCAR-8 ovarian
# [30] = tested on: RXF 393 renal
# [31] = tested on: SF-295 CNS
# [32] = tested on: SF-539 CNS
# [33] = tested on: SK-MEL-2 melanoma
# [34] = tested on: SK-MEL-28 melanoma
# [35] = tested on: SK-MEL-5 melanoma
# [36] = tested on: SK-OV-3 ovarian
# [37] = tested on: SN12C renal
# [38] = tested on: SNB-75 CNS
# [39] = tested on: SNB-78 CNS
# [40] = tested on: SR leukemia
# [41] = tested on: SW-620 colon
# [42] = tested on: TK-10 renal
# [43] = tested on: U251 CNS
# [44] = tested on: UACC-257 melanoma
# [45] = tested on: UACC-62 melanoma
# [46] = tested on: UO-31 renal
# [47] = tested on: XF 498 CNS
# [48] = tested on: 786-0 renal
# [49] = tested on: A498 renal
# [50] = tested on: CAKI-1 renal
# [51] = tested on: COLO 205 colon
# [52] = tested on: DMS 114 small cell lung
# [53] = tested on: DMS 273 small cell lung
# [54] = tested on: NCI-H23 lung
# [55] = tested on: RPMI-8226 leukemia
# [56] = tested on: SF-268 CNS
# [57] = tested on: SNB-19 CNS
# [58] = tested on: NCI-H226 lung
structure (smiles),measurement,setting,value
CC(=O)OCc1nnn2c1CCC2,TGI,[1],> 100 µM
same,TGI,[2],> 100 µM
same,TGI,[3],> 100 µM
same,TGI,[4],> 100 µM
same,TGI,[5],> 100 µM
same,TGI,[6],> 100 µM
same,TGI,[7],> 100 µM
same,TGI,[8],> 100 µM
same,TGI,[9],> 100 µM
same,TGI,[10],> 100 µM
same,TGI,[11],> 100 µM
same,TGI,[12],> 100 µM
same,TGI,[13],> 100 µM
same,TGI,[14],> 100 µM
same,TGI,[15],> 100 µM
same,TGI,[16],> 100 µM
same,TGI,[17],> 100 µM
same,TGI,[18],> 100 µM
same,TGI,[19],> 100 µM
same,TGI,[20],> 100 µM
same,TGI,[21],> 100 µM
same,TGI,[22],> 100 µM
same,TGI,[23],> 100 µM
same,TGI,[24],> 100 µM
same,TGI,[25],> 100 µM
same,TGI,[26],> 100 µM
same,TGI,[27],> 100 µM
same,TGI,[28],> 100 µM
same,TGI,[29],> 100 µM
same,TGI,[30],> 100 µM
same,TGI,[31],> 100 µM
same,TGI,[32],> 100 µM
same,TGI,[33],> 100 µM
same,TGI,[34],> 100 µM
same,TGI,[35],> 100 µM
same,TGI,[36],> 100 µM
same,TGI,[37],> 100 µM
same,TGI,[38],> 100 µM
same,TGI,[39],> 100 µM
same,TGI,[40],> 100 µM
same,TGI,[41],> 100 µM
same,TGI,[42],> 100 µM
same,TGI,[43],> 100 µM
same,TGI,[44],> 100 µM
same,TGI,[45],> 100 µM
same,TGI,[46],> 100 µM
same,TGI,[47],> 100 µM
CC(C)c1cc(C(=O)[O-])c(O)c(C(C)C)c1.CC(C)c1cc(C(=O)[O-])c(O)c(C(C)C)c1.CC(C)c1cc(C(=O)[O-])c(O)c(C(C)C)c1.CC(C)c1cc(C(=O)[O-])c(O)c(C(C)C)c1.CC(C)c1cc(C(=O)[O-])c(O)c(C(C)C)c1.CC(C)c1cc(C(=O)[O-])c(O)c(C(C)C)c1.[Cu+2].[Mn+2].[Mn+2],GI50,[48],20.3 µM
same,TGI,[48],46.9 µM
same,GI50,[49],34.1 µM
same,TGI,[49],82.2 µM
same,GI50,[1],11.1 µM
same,TGI,[1],33.8 µM
same,GI50,[2],31.7 µM
same,TGI,[2],> 100 µM
same,GI50,[50],30.9 µM
same,TGI,[50],53.3 µM
same,GI50,[3],15.8 µM
same,TGI,[3],42.8 µM
same,GI50,[51],10.9 µM
same,TGI,[51],25.6 µM
same,GI50,[4],17.8 µM
same,TGI,[4],35.9 µM
same,GI50,[52],17.8 µM
same,TGI,[52],34.6 µM
same,GI50,[53],22.4 µM
same,TGI,[53],> 100 µM
same,GI50,[5],23.3 µM
same,TGI,[5],> 100 µM
same,GI50,[7],21.2 µM
same,TGI,[7],37.8 µM
same,GI50,[8],39.3 µM
same,TGI,[8],> 100 µM
same,GI50,[9],17.7 µM
same,TGI,[9],53.9 µM
same,GI50,[10],13.3 µM
same,TGI,[10],29.1 µM
same,GI50,[11],21 µM
same,TGI,[11],42 µM
same,GI50,[12],19.9 µM
same,TGI,[12],54 µM
same,GI50,[13],15.6 µM
same,TGI,[13],31.4 µM
same,GI50,[14],15.2 µM
same,TGI,[14],38.4 µM
same,GI50,[15],12.8 µM
same,TGI,[15],50.4 µM
same,GI50,[16],18.2 µM
same,TGI,[16],43.4 µM
same,GI50,[17],26.1 µM
same,TGI,[17],> 100 µM
same,GI50,[18],17 µM
same,TGI,[18],36.3 µM
same,GI50,[19],19.6 µM
same,TGI,[19],46.3 µM
same,GI50,[20],14.8 µM
same,TGI,[20],30.4 µM
same,GI50,[21],5.67 µM
same,TGI,[21],18.7 µM
same,GI50,[22],15.1 µM
same,TGI,[22],28.7 µM
same,GI50,[23],20.3 µM
same,TGI,[23],66.1 µM
same,GI50,[54],20.1 µM
same,TGI,[54],45.6 µM
same,GI50,[24],15.8 µM
same,TGI,[24],32.2 µM
same,GI50,[25],10.9 µM
same,TGI,[25],25.1 µM
same,GI50,[26],2.87 µM
same,TGI,[26],10.4 µM
same,GI50,[27],16.1 µM
same,TGI,[27],47.8 µM
same,GI50,[28],28.2 µM
same,TGI,[28],49.3 µM
same,GI50,[29],29.3 µM
same,TGI,[29],81 µM
same,GI50,[55],14.5 µM
same,TGI,[55],50.4 µM
same,GI50,[56],35.5 µM
same,TGI,[56],82.7 µM
same,GI50,[31],18.1 µM
same,TGI,[31],49.5 µM
same,GI50,[32],22.1 µM
same,TGI,[32],39.8 µM
same,GI50,[33],20.4 µM
same,TGI,[33],42.6 µM
same,GI50,[34],20.5 µM
same,TGI,[34],45.3 µM
same,GI50,[35],17.1 µM
same,TGI,[35],32.3 µM
same,GI50,[36],2.61 µM
same,TGI,[36],16.1 µM
same,GI50,[37],20.9 µM
same,TGI,[37],49 µM
same,GI50,[57],20.8 µM
same,TGI,[57],47.8 µM
same,GI50,[38],24.8 µM
same,TGI,[38],68.7 µM
same,GI50,[39],37 µM
same,TGI,[39],> 100 µM
same,GI50,[41],14.8 µM
same,TGI,[41],29.5 µM
same,GI50,[42],39.5 µM
same,TGI,[42],91.7 µM
same,GI50,[43],9.43 µM
same,TGI,[43],22.7 µM
same,GI50,[44],29.6 µM
same,TGI,[44],67.1 µM
same,GI50,[45],15.3 µM
same,TGI,[45],34.4 µM
same,GI50,[46],16.5 µM
same,TGI,[46],32.6 µM
same,GI50,[47],30.2 µM
same,TGI,[47],71.5 µM
CC(C)C1NC(=O)[C@H](C)OC(=O)[C@@H](C(C)C)NC(=O)[C@@H](C)OC(=O)C(C(C)C)NC(=O)[C@H](C)OC1=O (some centres not stated),TGI,[48],47.2 µM
same,TGI,[49],> 100 µM
same,TGI,[1],> 100 µM
same,TGI,[2],> 100 µM
same,TGI,[50],> 100 µM
same,TGI,[3],> 100 µM
same,TGI,[51],> 94.8 µM
same,TGI,[4],> 100 µM
same,TGI,[52],> 100 µM
same,TGI,[53],> 100 µM
same,TGI,[5],> 100 µM
same,TGI,[6],> 100 µM
same,TGI,[7],> 100 µM
same,TGI,[8],34.2 µM
same,TGI,[9],> 100 µM
same,TGI,[10],> 100 µM
same,TGI,[11],> 100 µM
same,TGI,[12],> 100 µM
same,TGI,[13],> 100 µM
same,TGI,[14],> 100 µM
same,TGI,[15],> 59.3 µM
same,TGI,[16],> 100 µM
same,TGI,[17],> 100 µM
same,TGI,[18],> 79 µM
same,TGI,[19],> 100 µM
same,TGI,[20],> 100 µM
same,TGI,[21],> 100 µM
same,TGI,[22],> 100 µM
same,TGI,[23],> 100 µM
same,TGI,[58],> 100 µM
same,TGI,[54],> 100 µM
same,TGI,[24],> 100 µM
same,TGI,[25],> 100 µM
same,TGI,[26],> 100 µM
same,TGI,[27],> 100 µM
same,TGI,[28],> 100 µM
same,TGI,[29],> 100 µM
same,TGI,[55],> 68.8 µM
same,TGI,[56],> 100 µM
same,TGI,[31],> 100 µM
same,TGI,[32],> 81.7 µM
same,TGI,[33],> 100 µM
same,TGI,[34],> 100 µM
same,TGI,[35],> 100 µM
same,TGI,[36],> 100 µM
same,TGI,[37],> 100 µM
same,TGI,[57],> 100 µM
same,TGI,[38],> 100 µM
same,TGI,[39],> 100 µM
same,TGI,[40],72.9 µM
same,TGI,[41],> 51.7 µM
same,TGI,[42],> 100 µM
same,TGI,[43],> 100 µM
same,TGI,[44],> 100 µM
same,TGI,[45],> 100 µM
same,TGI,[46],> 100 µM
same,TGI,[47],> 100 µM
